Data reported in US20140199292A1, “COMPOSITIONS AND METHODS FOR INHIBITING TUMOR DEVELOPMENT CAUSED BY CHEMOTHERAPY INDUCED SENESCENCE” (INSERM (Institut National de la Sante et de la Recherche …, priority 2011, published 2014).

Assays:
NF-kB = NF-kB luciferase reporter assay in 501mel cells; format: cell-based, human
Protocol: 501mel melanoma cells were transiently transfected as previously described using the lipofectamine reagent (Invitrogen) (Bertolotto et al. 1998). Briefly, cells were transiently transfected with 0.3 μg of NF-kB reporter construct and 0.05 μg pCMVbGal to control the variability in transfection efficiency. The transfection medium was changed 6 hours later and when indicated, cells were transfected as described above with 50 nM of siC or siMi and/or siIKK2 or were exposed to drugs. Cells were assayed for luciferase and b-galactosidase activities 48 hours later. Transfections were repeated at least three times.

[1] = tested on: p65/RELA subunit of NF-kB; assay: Immunofluorescence of p65/RelA localization in melanoma cells; format: cell-based, human; details: for effect on NF-kB nuclear relocation by MITF-silencing: 3-AB 20 mM, sulfasalazine 500 μM
Protocol: Melanoma cells seeded on glass coverslips in 12-well dishes, were transfected with siC or siMi. When indicated cells were exposed to TNFa (10 ng/ml). Ninety-six hours later, cells were fixed and permeabilized as previously described (Khaled et al. 2003) before being exposed to anti-MITF (Abcam), anti-p65/RelA (Santa Cruz biotechnology), 53BP1 (Bethyl Laboratories) and E-cadherin (BD Transduction Laboratories) antibodies. Cells were washed thrice with PBS, and then incubated for 1 hour with 1:1000 dilution anti-mouse or anti-rabbit Alexa Fluor 488 or Alexa Fluor 594 labeled secondary antibody (Invitrogen, San Diego, Calif., USA) and mounted using Gel/Mount (Biomeda corp., Foster City Calif.). Immunofluorescences were examined and photographed with a Zeiss Axiophot microscope equipped with epifluorescence illumination.

CCL2 = CCL2 ELISA in supernatant of MCF7 cells; format: cell-based, human; parameters: CCL2 secretion of MCF7 cells: dose or concentration left out as unconfirmed; details: for effect on CCL2 secretion of H2O2-treated senescent MCF7 cells: sulfasalazine 500 μM, 3-AB 20 mM
Text: CCL2 level in the supernatant of the different melanoma cell lines, in that of MCF7 cells or in that of 501mel cells transfected with siC or siMi for 96 hrs, in presence or absence of drugs, was quantified by ELISA (R&D systems). Results from two independent experiments were normalized to cell number and expressed as ng/ml/10^6 cells.

IKK2, p53, PARP-1 = assay: Western blot of 501mel cell extracts (IKK2, p53, poly-(ADP rybosyl)ation); format: cell-based, human
Protocol: Western blots were carried out as previously described (Hilmi et al. 2008). Briefly, cell lysates (30 μg) were separated by SDS-PAGE, transferred on to a PVDF membrane and then exposed to the appropriate antibodies, anti-MITF (Abcam), anti-ERK2 (D-2 Santa Cruz biotechnology), anti-p53 (DO-1, Santa Cruz biotechnology), anti-PARP (Santa Cruz biotechnology), anti-IKK2 and anti-PARP (Cell Signaling Technology Inc.). Horseradish peroxidase-conjugated anti-rabbit or anti-mouse antibodies were from Dakopatts (Glostrup, Denmark). Proteins were visualized with the ECL system (Amersham). The western blots shown are representative of at least 3 independent experiments.

501mel cells = assay: Invasion assay, matrigel-coated modified Boyden chamber, naive 501mel cells; format: cell-based, human; details: recombinant CCL2 100 ng/ml as chemoattractant
Protocol: (§1) Cell invasion was assessed using a modified Boyden chamber assay with […] pore filter inserts for 24-well plates (BD Bioscience). 501mel cells were seeded on the upper chamber of matrigel-coated trans-well and chemoattractants (conditioned media or recombinant molecules) placed into the lower chamber. Twenty-four hours later, cells adherent to the underside of the filters were fixed with 4% PFA, stained with 0.4% crystal violet and five random fields at ×20 magnification were counted. Results represent the average of triplicate samples from three independent experiments.

[2] = tested on: 501mel human melanoma cells; assay: Senescence of 501mel melanoma cells (morphology, SA-b-Gal staining at pH6); format: cell-based; details: flattened and enlarged morphology, SA-b-Gal reactivity at pH6
Protocol: (§2) 501mel human melanoma cells and MCF7 human breast cancer cells were grown in DMEM supplemented with 7% FBS at 37° C. in a humidified atmosphere containing 5% CO2. Lipofectamine™ RNAiMAX and opti-MEM medium were purchased from Invitrogen (San Diego, Calif., USA). TNFa and recombinant human CCL2 were from PeproTech Inc (Rocky Hill, N.J.), sulfasalazine and 3-AB from Sigma Chem. Co (St Louis, Mo.), mouse anti-CCL2 from R&D Systems and KU55933 from Calbiochem. The senescence b-galactosidase staining kit from Cell Signaling Technology (Beverly, Mass., USA) was used to histochemically detect b-galactosidase activity at pH6 as previously reported (Giuliano et al. 2010a). The percentage of means and standard deviations were derived from counting 100 cells in duplicate plates after 96 hrs.

MCF7 cells = assay: Invasion assay, Boyden chamber, naive MCF7 cells; format: cell-based, human
Protocol: (a) Conditioned media of control or senescent MCF7 (H2O2 treated) were added to the lower compartment of Boyden chambers to assess their chemotactic activity. Cells that had migrated to the underside of the upper compartment were stained 24 hrs later with crystal violet and the number of nuclei was counted using NIH-imageJ analysis software. Values represent mean+SD of three independent experiments. (b) ELISA test of CCL2 level in the conditioned media of control MCF7 or MCF7 incubated with H2O2 ([…]) and when indicated with sulfasalazine (500 μM) or 3-AB (20 mM). Data are represented as mean+SD.
as §1

MITF = details: Mhaidat et al. 2007; Liu et al. 2009; cited from earlier work
[3] = tested on: MCF7 human breast cancer cells; assay: Senescence, DNA damage and NF-kB activation of MCF7 cells; format: cell-based
Protocol: as §2
We next wondered if a similar PARP-1 and NF-kB-assiocated secretome (PNAS) could be observed in non-melanoma cells that have entered a program of senescence. […] Although CCL2 was not expected to be the major component of MCF7's secretome, CCL2 measurement was used as a readout of its formation. […] Together, our result reveal that PNAS during cellular senescence is a common mechanism that relies on activation of the DNA damages/NF-kB signaling cascade in both melanoma and non-melanoma cell lines.

[4] = 3-AB 20 mM, sulfasalazine 500 μM

With TNFa as the compound, how does the “NF-kB transcriptional activity (luciferase reporter)” value (NF-kB; 501mel cells, TNFα 10 ng/ml, FMT 40 mM, TMZ 900 nM, H2O2 100 mM) read?
Its value is “up-regulated”.

And the “cellular localization of p65/RELA” value ([1]; TNFa 10 ng/ml)?
Its value is “p65 relocalized to the nucleus”.

For `O=C(O)c1cc(/N=N/c2ccc(S(=O)(=O)Nc3ccccn3)cc2)ccc1O` [sulfasalazine], which “effect on CCL2 secretion of H2O2-treated senescent MCF7 cells” value (CCL2) is on record?
The value was “impaired”.

What about the “effect on stimulation of NF-kB transcriptional activity by MITF-silencing” value (NF-kB; [4]) of the same compound?
The value was “no longer able”.

And the “effect on activation of the NF-kB reporter gene by siMITF or TNFa” value (NF-kB; sulfasalazine 500 μM, siIKK2 co-knockdown)?
The value was “prevented activation of the NF-kB reporter gene”.

And the “effect on NF-kB nuclear relocation by MITF-silencing” value [1]?
The value was “no longer able to relocate NF-kB to the nucleus”.

What about the “effect on IKK2 up-regulation mediated by MITF silencing” value (IKK2, p53, PARP-1; western blot) of the same compound?
The value was “abrogated”.

And the “effect on p53 up-regulation mediated by MITF silencing” value (IKK2, p53, PARP-1; western blot)?
Its value is “modestly affected”.

With “CCL2: recombinant human CCL2 from PeproTech, chemokine” as the compound, how does the “invasive capability of naive 501mel cells” value (501mel cells) read?
The value was “stimulated the invasive capability”.

For `CCOP(=O)(OCC)C(C)NC(=O)N(CCCl)N=O` (centres unmarked) [fotemustine], which “senescence of melanoma cells” value [2] is on record?
Its value is “extended these findings”.

With `OO` [H2O2] as the compound, how does the “CCL2 secretion of MCF7 cells” value (CCL2; H2O2) read?
The value was “resulted in CCL2 secretion”.

What about the “invasion of naive MCF7 cells toward supernatant of treated (senescent) MCF7” value (MCF7 cells) of the same compound?
Its value is “enhanced the invasion of naïve MCF7 cells”.

What about the MITF expression (MITF) of the same compound?
Its MITF expression is “decreased the expression of MITF”.

And the “poly-(ADP rybosyl)ation in melanoma cells” value (IKK2, p53, PARP-1)?
Its value is “increased poly-(ADP rybosyl)ation”.

And the “DNA damage in MCF7 cells (gH2AX labeling)” value [3]?
The value was “DNA damage induction”.

And the “NF-kB activity in MCF7 cells (nuclear localization of p65/RELA)” value [3]?
Its value is “stimulation of NF-kB activity”.

And the “senescence of MCF7 cells” value ([3]; morphological changes, SA-b-galactosidase, p53 and p21)?
The value was “underwent senescence”.

And the “senescence of melanoma cells” value [2]?
The value was “underwent premature senescence”.

What does the source list for `NC(=O)c1cccc(N)c1` [3-AB, 3-aminobenzamide]?
effect on CCL2 secretion of H2O2-treated senescent MCF7 cells (CCL2): impaired; effect on NF-kB transcriptional activity stimulated by oxidative stress and chemotherapeutic drugs (NF-kB; 3-AB 20 mM, FMT 40 mM, TMZ 900 nM, H2O2 100 mM): prevented; effect on stimulation of NF-kB transcriptional activity by MITF-silencing (NF-kB; [4]): no longer able; effect on NF-kB nuclear relocation by MITF-silencing [1]: no longer able to relocate NF-kB to the nucleus; effect on p53 up-regulation mediated by MITF silencing (IKK2, p53, PARP-1; western blot): almost completely abrogated
